Reference: US20060052314A1, “Pharmaceutical combination” (priority 2002, published 2006)
Structures can show the parent of a compound that is named as a salt. Each block holds one molecule with its values, some of them ahead of it.

Tests used:
[1] = Test G: conversion to active inhibitor in liver microsomes from humans; type: in vitro ADME
Method: (§1) By “prodrug of a thrombin inhibitor”, we include compounds that form a thrombin inhibitor, in an experimentally-detectable amount, and within a predetermined time (e.g. about 1 hour), following oral or parenteral administration (see, for example, Test E below) or, alternatively, following incubation in the presence of liver microsomes (see, for example, Test G below).

[2] = Test G: conversion to active inhibitor in liver microsomes from rats; type: in vitro ADME
Method: as §1

thrombin = thrombin (Homo sapiens, UniProt P00734); experiment: Test A: IC50TT; type: biochemical

melting point: 86 to 87 °C
Molecule: N=C(N)c1cnc(CNC(=O)[C@@H]2CCN2C(=O)[C@H](O)c2cc(Cl)cc(OC(F)F)c2)nc1 (as salt: TFA) [Example 36, Ph(3-Cl)(5-OCHF2)—(R)CH(OH)C(O)-Aze-NH—CH2-((5-amidino)-2-pyrimidinyl)]

Molecule: NC(=NO)c1ccc(CNC(=O)[C@@H]2CCN2C(=O)[C@H](O)c2cc(Cl)cc(OC(F)F)c2)cc1 [Example 2, Ph(3-Cl)(5-OCHF2)—(R)CH(OH)C(O)-Aze-Pab(OH)]
conversion to the corresponding active inhibitor (free amidine) [1]: converted to the corresponding active inhibitor (free amidine)
conversion to the corresponding active inhibitor (free amidine) [2]: converted to the corresponding active inhibitor (free amidine)

Molecule: CON=C(N)c1ccc(CNC(=O)[C@@H]2CCN2C(=O)[C@H](O)c2cc(Cl)cc(OC(F)(F)F)c2)cc1 [Example 7, Ph(3-Cl)(5-OCF3)—(R)CH(OH)C(O)-Aze-Pab(OMe)]
conversion to the corresponding active inhibitor (free amidine) [1]: converted to the corresponding active inhibitor (free amidine)
conversion to the corresponding active inhibitor (free amidine) [2]: converted to the corresponding active inhibitor (free amidine)

Molecule: CON=C(N)c1ccc(CNC(=O)[C@@H]2CCN2C(=O)[C@H](CO)c2cc(Cl)cc(OC(F)(F)F)c2)cc1 [Example 11, Ph(3-Cl)(5-OCF3)—(S)CH(CH2OH)C(O)-Aze-Pab(OMe)]
conversion to the corresponding active inhibitor (free amidine) [1]: converted to the corresponding active inhibitor (free amidine)
conversion to the corresponding active inhibitor (free amidine) [2]: converted to the corresponding active inhibitor (free amidine)

Molecule: CON=C(N)c1ccc(CNC(=O)[C@@H]2CCN2C(=O)[C@H](O)c2cc(Cl)cc(OC(F)F)c2)cc1 [Example 12, Ph(3-Cl)(5-OCHF2)—(R)CH(OH)C(O)-Aze-Pab(OMe)]
conversion to the corresponding active inhibitor (free amidine) [1]: converted to the corresponding active inhibitor (free amidine)
conversion to the corresponding active inhibitor (free amidine) [2]: converted to the corresponding active inhibitor (free amidine)

Molecule: CON=C(N)c1ccc(CNC(=O)[C@@H]2CCN2C(=O)[C@H](O)c2cc(Cl)cc(OCC(F)(F)F)c2)cc1 [Example 16, Ph(3-Cl)(5-OCH2CF3)—(R)CH(OH)C(O)-Aze-Pab(OMe)]
conversion to the corresponding active inhibitor (free amidine) [1]: converted to the corresponding active inhibitor (free amidine)
conversion to the corresponding active inhibitor (free amidine) [2]: converted to the corresponding active inhibitor (free amidine)

Molecule: CON=C(N)c1ccc(CNC(=O)[C@@H]2CCN2C(=O)[C@H](O)c2cc(Cl)cc(OCC(F)F)c2)cc1 [Example 18, Ph(3-Cl)(5-OCH2CHF2)—(R)CH(OH)C(O)-Aze-Pab(OMe)]
conversion to the corresponding active inhibitor (free amidine) [1]: converted to the corresponding active inhibitor (free amidine)
conversion to the corresponding active inhibitor (free amidine) [2]: converted to the corresponding active inhibitor (free amidine)

Molecule: CON=C(N)c1ccc(CNC(=O)[C@@H]2CCN2C(=O)[C@H](O)c2cc(Cl)cc(OCF)c2)cc1 [Example 20, Ph(3-Cl)(5-OCH2F)—(R)CH(OH)C(O)-Aze-Pab(OMe)]
conversion to the corresponding active inhibitor (free amidine) [1]: converted to the corresponding active inhibitor (free amidine)
conversion to the corresponding active inhibitor (free amidine) [2]: converted to the corresponding active inhibitor (free amidine)

Molecule: CON=C(N)c1ccc(CNC(=O)[C@@H]2CCN2C(=O)[C@H](O)c2cc(Cl)cc(OCCF)c2)cc1 [Example 22, Ph(3-Cl)(5-OCH2CH2F)—(R)CH(OH)C(O)-Aze-Pab(OMe)]
conversion to the corresponding active inhibitor (free amidine) [1]: converted to the corresponding active inhibitor (free amidine)
conversion to the corresponding active inhibitor (free amidine) [2]: converted to the corresponding active inhibitor (free amidine)

Molecule: CON=C(N)c1ccc(CNC(=O)[C@@H]2CCN2C(=O)[C@H](O)c2cc(Cl)cc(OC(CF)CF)c2)cc1 [Example 24, Ph(3-Cl)(5-OCH(CH2F)2)—(R)CH(OH)C(O)-Aze-Pab(OMe)]
conversion to the corresponding active inhibitor (free amidine) [1]: converted to the corresponding active inhibitor (free amidine)
conversion to the corresponding active inhibitor (free amidine) [2]: converted to the corresponding active inhibitor (free amidine)

Molecule: CON=C(N)c1ccc(CNC(=O)[C@@H]2CCN2C(=O)[C@H](O)c2cc(F)cc(OC(F)F)c2)cc1 [Example 26, Ph(3-F)(5-OCHF2)—(R)CH(OH)C(O)-Aze-Pab(OMe)]
conversion to the corresponding active inhibitor (free amidine) [1]: converted to the corresponding active inhibitor (free amidine)
conversion to the corresponding active inhibitor (free amidine) [2]: converted to the corresponding active inhibitor (free amidine)

Molecule: CON=C(N)c1ccc(CNC(=O)[C@@H]2CCCN2C(=O)[C@H](O)c2cc(Cl)cc(OC(F)F)c2)cc1 [Example 33, Ph(3-Cl)(5-OCHF2)—(R)CH(OH)—C(O)-Pro-Pab(OMe)]
conversion to the corresponding active inhibitor (free amidine) [1]: converted to the corresponding active inhibitor (free amidine)
conversion to the corresponding active inhibitor (free amidine) [2]: converted to the corresponding active inhibitor (free amidine)

IC50 (thrombin): < 20 nM
Molecule: N=C(N)c1ccc(CNC(=O)[C@@H]2CCN2C(=O)[C@H](O)c2cc(Cl)cc(OC(F)F)c2)cn1 [Example 34, Ph(3-Cl)(5-OCHF2)—(R)CH(OH)C(O)-Aze-NH—CH2-((2-amidino)-5-pyridinyl)]

IC50 (thrombin): < 3500 nM
Molecule: N=C(N)c1cnc(CNC(=O)[C@@H]2CCN2C(=O)[C@H](O)c2cc(Cl)cc(OC(F)F)c2)nc1 [Example 36, Ph(3-Cl)(5-OCHF2)—(R)CH(OH)C(O)-Aze-NH—CH2-((5-amidino)-2-pyrimidinyl)]

Molecule: CO/N=C(\N)c1cnc(CNC(=O)[C@@H]2CCN2C(=O)[C@H](O)c2cc(Cl)cc(OC(F)F)c2)nc1 [Example 37, Ph(3-Cl)(5-OCHF2)—(R)CH(OH)C(O)-Aze-NH—CH2-((5-methoxyamidino)-2-pyrimidinyl)]
conversion to the corresponding active inhibitor (free amidine) [1]: converted to the corresponding active inhibitor (free amidine)
conversion to the corresponding active inhibitor (free amidine) [2]: converted to the corresponding active inhibitor (free amidine)

IC50 (thrombin): < 150 nM
Molecule: N=C(N)c1ccc(CNC(=O)[C@@H]2CCN2C(=O)[C@H](O)c2cc(Cl)cc(OC(F)F)c2)cc1F [Example 38, Ph(3-Cl)(5-OCHF2)—(R)CH(OH)C(O)-Aze-Pab(3-F)]

IC50 (thrombin): < 20 nM
Molecule: N=C(N)c1cc(F)c(CNC(=O)[C@@H]2CCN2C(=O)[C@H](O)c2cc(Cl)cc(OC(F)F)c2)c(F)c1 [Example 39, Ph(3-Cl)(5-OCHF2)—(R)CH(OH)C(O)-Aze-Pab(2.6-diF)]

Molecule: CO/N=C(\N)c1cc(F)c(CNC(=O)[C@@H]2CCN2C(=O)[C@H](O)c2cc(Cl)cc(OC(F)F)c2)c(F)c1 [Example 40, Ph(3-Cl)(5-OCHF2)—(R)CH(OH)C(O)-Aze-Pab(2,6-diF)(OMe)]
conversion to the corresponding active inhibitor (free amidine) [1]: converted to the corresponding active inhibitor (free amidine)
conversion to the corresponding active inhibitor (free amidine) [2]: converted to the corresponding active inhibitor (free amidine)

IC50 (thrombin): < 150 nM
Molecule: N=C(N)c1cc(F)c(CNC(=O)[C@@H]2CCN2C(=O)[C@H](O)c2cc(Cl)cc(OC(F)F)c2)cc1F [Example 41, Ph(3-Cl)(5-OCHF2)—(R)CH(OH)C(O)-Aze-Pab(2,5-diF)]

Molecule: CCON=C(N)c1ccc(CNC(=O)[C@@H]2CCN2C(=O)[C@H](O)c2cc(Cl)cc(OC(F)F)c2)cc1 [Example 43, Ph(3-Cl)(5-OCHF2)—(R)CH(OH)C(O)-Aze-Pab(OEt)]
conversion to the corresponding active inhibitor (free amidine) [1]: converted to the corresponding active inhibitor (free amidine)
conversion to the corresponding active inhibitor (free amidine) [2]: converted to the corresponding active inhibitor (free amidine)

Molecule: CC(C)ON=C(N)c1ccc(CNC(=O)[C@@H]2CCN2C(=O)[C@H](O)c2cc(Cl)cc(OC(F)F)c2)cc1 [Example 45, Ph(3-Cl)(5-OCHF2)—(R)CH(OH)C(O)-Aze-Pab(OiPr)]
conversion to the corresponding active inhibitor (free amidine) [1]: converted to the corresponding active inhibitor (free amidine)
conversion to the corresponding active inhibitor (free amidine) [2]: converted to the corresponding active inhibitor (free amidine)

Molecule: Ph(3-Br)(5-OCHF2)—(R)CH(OH)C(O)-Aze-Pab(OMe) [Example 29]
conversion to the corresponding active inhibitor (free amidine) [1]: converted to the corresponding active inhibitor (free amidine)
conversion to the corresponding active inhibitor (free amidine) [2]: converted to the corresponding active inhibitor (free amidine)

Molecule: Ph(3-Cl)(5-OCHF2)—(R)CH(OH)C(O)-Aze-Pab(OcBu) [Example 1]
conversion to the corresponding active inhibitor (free amidine) [1]: converted to the corresponding active inhibitor (free amidine)
conversion to the corresponding active inhibitor (free amidine) [2]: converted to the corresponding active inhibitor (free amidine)
